Measured values as given in ChEMBL document CHEMBL3774336, “Identification of spirooxindole and dibenzoxazepine motifs as potent mineralocorticoid receptor antagonists” (Bioorg Med Chem, 2016).
pIC50, pKi: −log10 of the molar value.

Tests used:
[1] = target: T1, Mineralocorticoid receptor (Homo sapiens, UniProt P08235, C808S)
[2] = target: T1, Mineralocorticoid receptor; remark: listed apart in the source
[3] = target: Histamine H1 receptor (Homo sapiens) (UniProt P35367); experiment: Inhibition of histamine H1 receptor (unknown origin) at 10 uM
Sequence of Histamine H1 receptor (Homo sapiens) (P35367 whole entry): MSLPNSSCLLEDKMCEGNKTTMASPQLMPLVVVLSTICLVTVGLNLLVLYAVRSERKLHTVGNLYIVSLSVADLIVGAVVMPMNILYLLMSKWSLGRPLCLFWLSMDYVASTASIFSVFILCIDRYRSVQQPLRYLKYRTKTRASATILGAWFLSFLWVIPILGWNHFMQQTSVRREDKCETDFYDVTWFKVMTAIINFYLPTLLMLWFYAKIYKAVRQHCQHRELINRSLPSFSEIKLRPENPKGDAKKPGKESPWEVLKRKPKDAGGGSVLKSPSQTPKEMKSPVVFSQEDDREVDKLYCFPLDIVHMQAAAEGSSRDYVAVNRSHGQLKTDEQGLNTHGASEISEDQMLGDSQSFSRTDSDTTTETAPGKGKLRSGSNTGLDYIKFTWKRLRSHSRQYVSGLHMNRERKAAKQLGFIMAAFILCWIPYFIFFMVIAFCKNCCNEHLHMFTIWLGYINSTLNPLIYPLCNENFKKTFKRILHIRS

[4] = target: 5-hydroxytryptamine receptor 2B (Homo sapiens) (UniProt P41595); experiment: Inhibition of serotonin 5H2B receptor (unknown origin) at 10 uM
Sequence of 5-hydroxytryptamine receptor 2B (Homo sapiens) (P41595 whole entry): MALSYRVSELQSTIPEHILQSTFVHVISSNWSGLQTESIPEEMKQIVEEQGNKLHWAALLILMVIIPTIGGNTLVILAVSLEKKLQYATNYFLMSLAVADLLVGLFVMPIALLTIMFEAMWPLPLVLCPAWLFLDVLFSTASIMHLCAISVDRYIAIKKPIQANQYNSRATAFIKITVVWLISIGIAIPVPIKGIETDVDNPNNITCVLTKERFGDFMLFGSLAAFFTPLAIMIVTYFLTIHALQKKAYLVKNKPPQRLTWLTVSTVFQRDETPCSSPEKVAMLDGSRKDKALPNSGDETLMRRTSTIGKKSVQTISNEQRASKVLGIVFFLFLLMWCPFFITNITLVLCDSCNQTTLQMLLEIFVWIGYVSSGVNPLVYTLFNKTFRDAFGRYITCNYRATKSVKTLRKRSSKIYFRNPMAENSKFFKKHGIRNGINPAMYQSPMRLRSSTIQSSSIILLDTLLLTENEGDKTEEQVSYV

Cytochrome P450 3A4 = Cytochrome P450 3A4 (Homo sapiens, UniProt P08684)
Sequence of Cytochrome P450 3A4 (P08684 whole entry, the tested form may be a part): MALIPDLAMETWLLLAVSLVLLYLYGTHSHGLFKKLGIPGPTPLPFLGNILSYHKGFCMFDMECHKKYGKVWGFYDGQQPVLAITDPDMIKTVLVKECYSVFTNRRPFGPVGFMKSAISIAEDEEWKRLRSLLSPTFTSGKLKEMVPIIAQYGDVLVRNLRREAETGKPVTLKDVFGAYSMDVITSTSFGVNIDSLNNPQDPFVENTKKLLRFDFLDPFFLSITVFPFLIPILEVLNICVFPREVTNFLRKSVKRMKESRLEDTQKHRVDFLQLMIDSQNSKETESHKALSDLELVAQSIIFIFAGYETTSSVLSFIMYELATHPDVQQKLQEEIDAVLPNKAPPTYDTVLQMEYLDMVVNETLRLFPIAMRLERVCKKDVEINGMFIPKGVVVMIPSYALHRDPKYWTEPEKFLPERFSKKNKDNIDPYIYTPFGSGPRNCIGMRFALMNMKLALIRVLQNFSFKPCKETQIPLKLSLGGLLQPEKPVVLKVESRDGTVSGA
Description: Inhibition of CYP3A4 (unknown origin)

Glucocorticoid receptor = target: T2, Glucocorticoid receptor (Homo sapiens, UniProt P04150); experiment: Inhibition of GST-tagged human glucocorticoid receptor LBD domain expressed in insect cells at by Gal4-based fluorescence polarization assay
T2 sequence (P04150 whole entry): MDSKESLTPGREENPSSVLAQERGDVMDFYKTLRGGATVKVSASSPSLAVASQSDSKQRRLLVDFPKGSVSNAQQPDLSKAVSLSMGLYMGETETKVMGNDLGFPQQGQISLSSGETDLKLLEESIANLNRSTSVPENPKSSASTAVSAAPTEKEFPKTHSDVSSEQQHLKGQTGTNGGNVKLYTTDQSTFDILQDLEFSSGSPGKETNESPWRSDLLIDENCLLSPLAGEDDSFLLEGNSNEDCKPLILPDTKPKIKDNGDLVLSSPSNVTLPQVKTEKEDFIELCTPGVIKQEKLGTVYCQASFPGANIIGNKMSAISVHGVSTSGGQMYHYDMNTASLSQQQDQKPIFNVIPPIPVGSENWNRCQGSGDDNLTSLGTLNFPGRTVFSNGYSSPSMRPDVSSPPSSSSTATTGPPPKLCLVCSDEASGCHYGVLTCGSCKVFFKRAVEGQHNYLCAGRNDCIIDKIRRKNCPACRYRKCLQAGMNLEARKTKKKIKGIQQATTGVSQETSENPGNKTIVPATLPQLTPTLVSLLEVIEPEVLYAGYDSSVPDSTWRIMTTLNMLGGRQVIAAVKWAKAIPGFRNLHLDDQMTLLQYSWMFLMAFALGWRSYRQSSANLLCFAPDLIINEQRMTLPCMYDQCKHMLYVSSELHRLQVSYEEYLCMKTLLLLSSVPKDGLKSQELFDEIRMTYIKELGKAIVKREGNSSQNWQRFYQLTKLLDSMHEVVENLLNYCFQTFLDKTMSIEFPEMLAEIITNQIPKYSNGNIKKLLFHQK

[5] = target: T3, Alpha-2A adrenergic receptor (Homo sapiens) (UniProt P08913); experiment: Inhibition of adrenergic alpha2A receptor (unknown origin) at 10 uM
T3 sequence (whole entry): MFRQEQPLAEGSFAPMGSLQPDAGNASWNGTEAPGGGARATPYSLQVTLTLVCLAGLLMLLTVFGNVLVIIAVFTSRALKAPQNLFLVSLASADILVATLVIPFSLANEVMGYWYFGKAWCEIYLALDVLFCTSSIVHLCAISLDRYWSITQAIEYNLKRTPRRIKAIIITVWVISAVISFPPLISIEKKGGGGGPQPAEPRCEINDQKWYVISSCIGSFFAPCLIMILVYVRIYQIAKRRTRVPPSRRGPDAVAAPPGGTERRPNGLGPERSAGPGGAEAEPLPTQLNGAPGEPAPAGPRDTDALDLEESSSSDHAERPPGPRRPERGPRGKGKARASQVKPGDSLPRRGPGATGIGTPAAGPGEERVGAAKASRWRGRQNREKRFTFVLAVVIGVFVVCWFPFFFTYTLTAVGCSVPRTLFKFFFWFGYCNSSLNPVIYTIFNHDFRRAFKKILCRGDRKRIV

Progesterone receptor = target: T4, Progesterone receptor (Homo sapiens, UniProt P06401); experiment: Inhibition of GST-tagged human progesterone receptor LBD domain expressed in insect cells by Gal4-based fluorescence polarization assay
T4 sequence (P06401 whole entry): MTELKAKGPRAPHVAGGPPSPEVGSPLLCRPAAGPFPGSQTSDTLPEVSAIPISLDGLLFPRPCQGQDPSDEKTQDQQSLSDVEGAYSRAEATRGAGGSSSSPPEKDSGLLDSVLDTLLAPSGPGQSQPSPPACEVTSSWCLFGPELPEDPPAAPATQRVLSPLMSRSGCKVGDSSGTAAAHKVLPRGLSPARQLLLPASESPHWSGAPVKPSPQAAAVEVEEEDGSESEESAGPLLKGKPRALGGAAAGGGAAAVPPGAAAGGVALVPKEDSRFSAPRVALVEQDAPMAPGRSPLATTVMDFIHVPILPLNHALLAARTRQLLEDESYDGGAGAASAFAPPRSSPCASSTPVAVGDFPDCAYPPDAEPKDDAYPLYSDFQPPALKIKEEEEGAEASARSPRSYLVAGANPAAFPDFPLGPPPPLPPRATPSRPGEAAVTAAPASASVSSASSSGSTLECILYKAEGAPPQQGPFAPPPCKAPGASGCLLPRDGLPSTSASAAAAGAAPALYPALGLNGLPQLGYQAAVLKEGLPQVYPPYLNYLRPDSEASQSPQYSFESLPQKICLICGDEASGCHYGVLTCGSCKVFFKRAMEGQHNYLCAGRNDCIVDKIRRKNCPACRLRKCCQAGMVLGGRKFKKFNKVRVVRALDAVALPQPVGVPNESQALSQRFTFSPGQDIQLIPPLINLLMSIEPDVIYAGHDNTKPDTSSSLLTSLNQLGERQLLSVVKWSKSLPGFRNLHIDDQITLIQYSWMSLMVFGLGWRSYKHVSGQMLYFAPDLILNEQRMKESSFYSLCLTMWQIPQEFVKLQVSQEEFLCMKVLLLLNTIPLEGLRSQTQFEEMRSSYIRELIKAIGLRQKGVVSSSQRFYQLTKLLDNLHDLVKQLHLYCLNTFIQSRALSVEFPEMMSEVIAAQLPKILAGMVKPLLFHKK

Estrogen receptor = target: T5, Estrogen receptor (Homo sapiens, UniProt P03372); experiment: Inhibition of estrogen receptor (unknown origin) by Gal4-based luciferase assay
T5 sequence (P03372 whole entry): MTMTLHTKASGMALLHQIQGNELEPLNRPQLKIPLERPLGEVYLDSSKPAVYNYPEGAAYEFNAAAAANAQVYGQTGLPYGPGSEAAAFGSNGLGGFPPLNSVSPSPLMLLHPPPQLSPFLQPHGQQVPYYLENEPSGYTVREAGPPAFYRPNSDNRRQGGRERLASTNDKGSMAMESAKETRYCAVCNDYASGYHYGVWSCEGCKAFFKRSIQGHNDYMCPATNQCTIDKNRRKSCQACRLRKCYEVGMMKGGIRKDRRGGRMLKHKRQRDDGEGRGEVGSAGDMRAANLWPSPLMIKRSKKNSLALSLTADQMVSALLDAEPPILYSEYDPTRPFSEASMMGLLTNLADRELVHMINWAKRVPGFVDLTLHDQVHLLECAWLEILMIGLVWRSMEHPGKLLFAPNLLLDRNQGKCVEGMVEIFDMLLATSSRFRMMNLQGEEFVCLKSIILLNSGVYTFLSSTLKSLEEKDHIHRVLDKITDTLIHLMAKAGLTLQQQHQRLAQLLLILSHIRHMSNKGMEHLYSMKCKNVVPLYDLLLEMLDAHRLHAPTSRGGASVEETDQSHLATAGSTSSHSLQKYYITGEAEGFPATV

[6] = Half life of compound in rat liver microsomes; type: ADME
Cytochrome P450 2C9 = Cytochrome P450 2C9 (Homo sapiens, UniProt P11712); experiment: Inhibition of CYP2C9 (unknown origin); type: ADME
Sequence of Cytochrome P450 2C9 (P11712 whole entry): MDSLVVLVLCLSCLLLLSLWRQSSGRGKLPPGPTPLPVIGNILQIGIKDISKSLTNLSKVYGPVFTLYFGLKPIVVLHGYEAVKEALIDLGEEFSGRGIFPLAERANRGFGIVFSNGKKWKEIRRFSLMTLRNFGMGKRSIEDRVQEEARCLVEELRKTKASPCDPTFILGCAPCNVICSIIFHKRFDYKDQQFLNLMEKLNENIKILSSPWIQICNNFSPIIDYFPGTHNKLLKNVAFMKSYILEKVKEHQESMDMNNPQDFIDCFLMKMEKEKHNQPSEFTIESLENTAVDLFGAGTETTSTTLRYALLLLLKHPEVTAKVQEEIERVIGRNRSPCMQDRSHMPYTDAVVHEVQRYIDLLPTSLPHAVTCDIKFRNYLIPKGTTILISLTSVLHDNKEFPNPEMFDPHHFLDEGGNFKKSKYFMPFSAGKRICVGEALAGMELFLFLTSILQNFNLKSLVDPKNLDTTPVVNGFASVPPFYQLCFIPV

hERG (KCNH2) = hERG (KCNH2) (Homo sapiens, UniProt Q12809); experiment: Inhibition of human ERG (unknown origin) at 10 uM
Sequence of hERG (KCNH2) (Q12809 whole entry): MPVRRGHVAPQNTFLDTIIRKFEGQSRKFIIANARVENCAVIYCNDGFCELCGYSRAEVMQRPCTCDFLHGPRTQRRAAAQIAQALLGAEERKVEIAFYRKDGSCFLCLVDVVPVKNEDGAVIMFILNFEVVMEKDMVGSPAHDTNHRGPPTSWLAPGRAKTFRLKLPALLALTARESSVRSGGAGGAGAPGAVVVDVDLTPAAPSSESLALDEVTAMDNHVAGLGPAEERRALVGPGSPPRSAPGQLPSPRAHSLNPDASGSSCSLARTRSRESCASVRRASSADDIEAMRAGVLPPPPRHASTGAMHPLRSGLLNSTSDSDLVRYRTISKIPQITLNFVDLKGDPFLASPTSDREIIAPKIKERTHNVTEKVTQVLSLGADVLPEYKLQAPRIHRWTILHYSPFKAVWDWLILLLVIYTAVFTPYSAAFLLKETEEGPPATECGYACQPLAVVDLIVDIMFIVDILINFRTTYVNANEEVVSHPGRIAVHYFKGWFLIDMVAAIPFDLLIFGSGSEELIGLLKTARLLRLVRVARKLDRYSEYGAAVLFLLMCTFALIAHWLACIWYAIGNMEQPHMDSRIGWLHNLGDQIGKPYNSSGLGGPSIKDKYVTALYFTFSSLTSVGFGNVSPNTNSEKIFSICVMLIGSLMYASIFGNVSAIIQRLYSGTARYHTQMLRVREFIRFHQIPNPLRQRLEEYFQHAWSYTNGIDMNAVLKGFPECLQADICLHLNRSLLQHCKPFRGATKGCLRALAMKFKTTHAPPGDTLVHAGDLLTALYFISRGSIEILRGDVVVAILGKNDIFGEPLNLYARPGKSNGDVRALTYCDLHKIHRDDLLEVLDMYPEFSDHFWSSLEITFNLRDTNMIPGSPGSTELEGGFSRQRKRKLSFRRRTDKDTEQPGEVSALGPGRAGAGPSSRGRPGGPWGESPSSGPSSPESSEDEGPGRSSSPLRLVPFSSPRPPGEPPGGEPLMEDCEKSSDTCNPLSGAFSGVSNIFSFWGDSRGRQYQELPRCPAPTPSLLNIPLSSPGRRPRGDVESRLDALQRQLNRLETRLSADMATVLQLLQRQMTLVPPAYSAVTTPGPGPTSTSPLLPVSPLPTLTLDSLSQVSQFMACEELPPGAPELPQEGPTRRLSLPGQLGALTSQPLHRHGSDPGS

Cytochrome P450 2D6 = Cytochrome P450 2D6 (Homo sapiens, UniProt P10635); experiment: Inhibition of CYP2D6 (unknown origin); type: ADME
Sequence of Cytochrome P450 2D6 (P10635 whole entry): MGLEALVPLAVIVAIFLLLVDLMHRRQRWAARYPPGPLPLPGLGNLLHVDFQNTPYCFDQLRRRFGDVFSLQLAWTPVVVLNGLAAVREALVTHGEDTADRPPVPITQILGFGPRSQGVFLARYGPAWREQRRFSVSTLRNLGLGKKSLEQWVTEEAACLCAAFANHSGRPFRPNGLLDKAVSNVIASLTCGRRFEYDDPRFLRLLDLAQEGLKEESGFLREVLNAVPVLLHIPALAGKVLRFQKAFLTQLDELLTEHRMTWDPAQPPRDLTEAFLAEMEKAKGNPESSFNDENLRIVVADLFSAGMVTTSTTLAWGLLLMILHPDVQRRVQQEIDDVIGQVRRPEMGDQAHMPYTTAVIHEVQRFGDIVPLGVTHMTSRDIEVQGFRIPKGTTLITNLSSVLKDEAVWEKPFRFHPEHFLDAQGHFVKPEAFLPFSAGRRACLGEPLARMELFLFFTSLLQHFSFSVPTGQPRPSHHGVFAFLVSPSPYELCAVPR

T1 sequence (P08235 whole entry C808S): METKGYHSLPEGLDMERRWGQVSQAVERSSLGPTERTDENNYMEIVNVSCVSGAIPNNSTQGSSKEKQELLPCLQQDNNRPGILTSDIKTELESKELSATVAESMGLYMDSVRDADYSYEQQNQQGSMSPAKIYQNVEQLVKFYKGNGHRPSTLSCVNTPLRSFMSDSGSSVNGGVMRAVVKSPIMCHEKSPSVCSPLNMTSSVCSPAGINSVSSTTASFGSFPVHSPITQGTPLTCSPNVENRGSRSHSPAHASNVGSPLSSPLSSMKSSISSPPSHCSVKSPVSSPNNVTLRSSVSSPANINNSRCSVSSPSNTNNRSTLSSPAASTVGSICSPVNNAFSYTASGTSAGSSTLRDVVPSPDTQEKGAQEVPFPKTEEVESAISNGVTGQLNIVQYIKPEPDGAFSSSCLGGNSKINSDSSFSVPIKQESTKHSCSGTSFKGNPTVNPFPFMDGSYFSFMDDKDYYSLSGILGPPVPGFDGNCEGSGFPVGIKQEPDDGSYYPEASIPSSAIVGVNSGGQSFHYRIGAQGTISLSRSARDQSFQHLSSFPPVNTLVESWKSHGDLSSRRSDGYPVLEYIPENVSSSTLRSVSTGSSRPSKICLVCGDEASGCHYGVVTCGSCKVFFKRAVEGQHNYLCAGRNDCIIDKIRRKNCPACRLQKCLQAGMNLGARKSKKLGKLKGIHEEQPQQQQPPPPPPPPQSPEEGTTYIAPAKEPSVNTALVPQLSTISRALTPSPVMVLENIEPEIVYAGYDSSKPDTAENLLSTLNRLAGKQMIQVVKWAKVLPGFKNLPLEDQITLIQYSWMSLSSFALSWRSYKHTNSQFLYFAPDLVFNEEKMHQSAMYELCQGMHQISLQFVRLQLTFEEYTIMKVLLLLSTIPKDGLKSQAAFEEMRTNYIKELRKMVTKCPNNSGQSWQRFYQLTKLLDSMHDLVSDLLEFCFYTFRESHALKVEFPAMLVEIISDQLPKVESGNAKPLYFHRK

O=C1Nc2cc(CN3c4ccccc4COc4cc(F)ccc43)ccc2C12CCNCC2
pIC50 [1]: 5.52
pKi [2]: 5.97

O=C(c1ccc2c(c1)NC(=O)C21CCNCC1)N1c2ccccc2COc2cc(F)ccc21
pIC50 [1]: 5.31
pKi [2]: 5.96

O=C1COc2ccc(S(=O)(=O)N(Cc3cccnc3)c3ccc(F)cc3)cc2N1
pIC50 [1]: < 8.00
pKi [2]: < 8.00

CN(C)CC(=O)N1CCC2(CC1)C(=O)Nc1cc(/C=C3\c4ccccc4COc4cc(F)ccc43)ccc12
inhibition [3]: 77%
inhibition [4]: 79%
pIC50 (Cytochrome P450 3A4): 5.32
pIC50 (Glucocorticoid receptor): < 5.30
inhibition [5]: 88%
pIC50 (Progesterone receptor): < 5.30
pIC50 (Estrogen receptor): < 4.40
half-life [6]: 53 min
pIC50 [1]: 8.22
pIC50 (Cytochrome P450 2C9): 5.49
inhibition at 10 µM (hERG (KCNH2)): 98%
pKi [2]: 8.22
pIC50 (Cytochrome P450 2D6): 5.11

CN(Cc1ccc2c(c1)NC(=O)CO2)c1ccc(F)cc1F
pIC50 [1]: 6.51
pKi [2]: 6.64

O=S1(=O)Cc2ccc(/C=C3\c4ccccc4COc4cc(F)ccc43)cc2N1
pIC50 [1]: 5.59
pKi [2]: 6.16

O=C1COc2ccc(CCc3ccc(F)cc3F)cc2N1
pIC50 [1]: 6.99
pKi [2]: 7.70

O=C1COc2ccc(S(=O)(=O)N3c4ccccc4COc4cc(F)ccc43)cc2N1
inhibition [3]: 1%
inhibition [4]: 34%
inhibition [5]: 24%
pIC50 [1]: 7.25
pIC50 (Cytochrome P450 2C9): 5.81
inhibition at 10 µM (hERG (KCNH2)): 28%
pKi [2]: 6.89
pIC50 (Cytochrome P450 2D6): 4.67

O=C1COc2ccc(/C=C(\c3ccccc3)c3ccc(F)cc3F)cc2N1
pIC50 [1]: 5.80
pKi [2]: 7.26

O=C1COc2ccc(COc3ccc(F)cc3F)cc2N1
pIC50 [1]: 5.74
pKi [2]: 6.01

O=c1[nH]c2cc(/C=C3\c4ccccc4COc4cc(F)ccc43)ccc2n1[C@@H]1C[C@@H]2COCCN2C1
inhibition [3]: 49%
inhibition [4]: 62%
pIC50 (Cytochrome P450 3A4): 5.24
pIC50 (Glucocorticoid receptor): < 4.60
inhibition [5]: 76%
pIC50 (Progesterone receptor): < 4.60
pIC50 (Estrogen receptor): < 4.60
half-life [6]: 34 min
pIC50 [1]: 7.64
pIC50 (Cytochrome P450 2C9): 5.80
inhibition at 10 µM (hERG (KCNH2)): 62%
pKi [2]: 8.05
pIC50 (Cytochrome P450 2D6): < 4.52

O=C1COc2ccc(C#Cc3ccc(F)cc3F)cc2N1
pIC50 [1]: 6.11
pKi [2]: 6.84

C[N+]1([O-])CCC2(CC1)C(=O)Nc1cc(/C=C3\c4ccccc4COc4cc(F)ccc43)ccc12 (stereo unspecified)
inhibition [3]: 65%
inhibition [4]: 66%
pIC50 (Cytochrome P450 3A4): 4.58
pIC50 (Glucocorticoid receptor): < 4.43
inhibition [5]: 60%
pIC50 (Progesterone receptor): < 4.43
pIC50 (Estrogen receptor): < 4.43
half-life [6]: > 60 min
pIC50 [1]: 7.36
pIC50 (Cytochrome P450 2C9): 4.77
inhibition at 10 µM (hERG (KCNH2)): 55%
pKi [2]: 7.72
pIC50 (Cytochrome P450 2D6): < 4.52

OC1CCc2c(/C=C3\c4ccccc4COc4cc(F)ccc43)cccc21 (stereo unspecified)
pIC50 [1]: 6.50
pKi [2]: 7.85

O=C1COc2ccc(CN3c4ccccc4COc4cc(F)ccc43)cc2N1
inhibition [3]: 47%
inhibition [4]: 94%
pIC50 (Cytochrome P450 3A4): 5.26
inhibition [5]: 72%
pIC50 [1]: 6.75
pIC50 (Cytochrome P450 2C9): 6.19
inhibition at 10 µM (hERG (KCNH2)): 29%
pKi [2]: 7.51
pIC50 (Cytochrome P450 2D6): 4.79

O=C1COc2ccc(N(Cc3cccnc3)c3ccc(F)cc3)cc2N1
pIC50 [1]: 5.82
pKi [2]: 5.84

O=C1Nc2cc(S(=O)(=O)N3c4ccccc4COc4cc(F)ccc43)ccc2C12CCNCC2
pIC50 [1]: 5.28
pKi [2]: 5.26

O=C1COc2ccc(/C=C/c3ccc(F)cc3F)cc2N1
pIC50 [1]: 5.64
pKi [2]: 6.79

O=C1COc2ccc(/C=C\c3ccc(F)cc3F)cc2N1
pIC50 [1]: 5.82
pKi [2]: 6.59

O=C1CCc2c(/C=C3\c4ccccc4COc4cc(F)ccc43)cccc21
pIC50 [1]: 6.83
pKi [2]: 7.89
